Source: ChEMBL document CHEMBL1139217, “Development of dihydropyridone indazole amides as selective Rho-kinase inhibitors” (J Med Chem, 2007)

Legend:
[1] = Volume of distribution in Sprague-Dawley rat at 0.9 mg/kg; format: ADME, organism-based; set-up: dose 0.9 mg/kg; conditions: in vivo, read-out: Vdss
[2] = Oral bioavailability in Sprague-Dawley rat at 0.9 mg/kg, po; format: ADME, organism-based; conditions: in vivo
[3] = Clearance in Sprague-Dawley rat at 0.9 mg/kg; format: ADME, organism-based; set-up: dose 0.9 mg/kg; conditions: in vivo
[4] = Half life in Sprague-Dawley rat at 0.9 mg/kg; format: ADME, organism-based; set-up: dose 0.9 mg/kg; conditions: in vivo
[5] = target: Ribosomal protein S6 kinase beta-1 (Homo sapiens, UniProt P23443); assay: Inhibition of p70S6K
Chain of Ribosomal protein S6 kinase beta-1 (P23443 whole entry): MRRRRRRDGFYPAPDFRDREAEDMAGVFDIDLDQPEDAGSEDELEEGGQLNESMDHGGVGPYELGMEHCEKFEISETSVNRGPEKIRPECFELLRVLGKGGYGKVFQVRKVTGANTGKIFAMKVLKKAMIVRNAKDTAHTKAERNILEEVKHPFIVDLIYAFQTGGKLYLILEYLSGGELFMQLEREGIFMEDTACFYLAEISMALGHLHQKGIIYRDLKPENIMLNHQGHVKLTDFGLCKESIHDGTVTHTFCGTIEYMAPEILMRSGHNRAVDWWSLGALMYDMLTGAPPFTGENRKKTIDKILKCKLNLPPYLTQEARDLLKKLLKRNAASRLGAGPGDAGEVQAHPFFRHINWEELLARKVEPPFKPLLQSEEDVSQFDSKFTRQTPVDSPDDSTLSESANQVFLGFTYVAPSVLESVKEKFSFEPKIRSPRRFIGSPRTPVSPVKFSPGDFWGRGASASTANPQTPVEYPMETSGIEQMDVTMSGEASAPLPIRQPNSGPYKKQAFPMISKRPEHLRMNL

[6] = Cmax in Sprague-Dawley rat at 0.9 mg/kg, iv; format: ADME, organism-based; set-up: dose 0.9 mg/kg, route intravenous; conditions: in vivo
[7] = target: Ribosomal protein S6 kinase alpha-1 (Homo sapiens, UniProt Q15418); assay: Inhibition of RSK1
Chain of Ribosomal protein S6 kinase alpha-1 (Q15418 whole entry): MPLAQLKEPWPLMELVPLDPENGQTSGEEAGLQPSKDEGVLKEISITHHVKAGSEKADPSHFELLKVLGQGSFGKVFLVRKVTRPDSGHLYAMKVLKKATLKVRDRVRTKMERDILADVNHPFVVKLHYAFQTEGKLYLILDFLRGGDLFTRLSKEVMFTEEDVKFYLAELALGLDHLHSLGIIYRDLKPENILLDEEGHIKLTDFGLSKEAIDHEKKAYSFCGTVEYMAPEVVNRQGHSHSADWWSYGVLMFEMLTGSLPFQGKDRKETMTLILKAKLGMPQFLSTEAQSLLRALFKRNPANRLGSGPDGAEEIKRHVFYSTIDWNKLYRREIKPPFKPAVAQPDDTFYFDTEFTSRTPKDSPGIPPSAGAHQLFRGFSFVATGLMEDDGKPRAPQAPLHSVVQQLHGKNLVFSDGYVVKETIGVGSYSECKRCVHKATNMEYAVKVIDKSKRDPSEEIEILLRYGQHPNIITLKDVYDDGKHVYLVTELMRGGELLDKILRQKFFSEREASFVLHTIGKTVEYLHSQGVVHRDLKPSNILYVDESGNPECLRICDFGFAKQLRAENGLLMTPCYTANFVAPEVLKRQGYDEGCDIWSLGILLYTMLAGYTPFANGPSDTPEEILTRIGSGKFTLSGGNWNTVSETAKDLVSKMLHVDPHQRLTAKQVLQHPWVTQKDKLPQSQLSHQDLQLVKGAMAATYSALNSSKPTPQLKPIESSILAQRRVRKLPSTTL

[8] = target: Rho-associated protein kinase 1 (Homo sapiens, UniProt Q13464); assay: Inhibition of human recombinant ROCK1 expressed in Sf9 cells […]
Chain of Rho-associated protein kinase 1 (Q13464 whole entry): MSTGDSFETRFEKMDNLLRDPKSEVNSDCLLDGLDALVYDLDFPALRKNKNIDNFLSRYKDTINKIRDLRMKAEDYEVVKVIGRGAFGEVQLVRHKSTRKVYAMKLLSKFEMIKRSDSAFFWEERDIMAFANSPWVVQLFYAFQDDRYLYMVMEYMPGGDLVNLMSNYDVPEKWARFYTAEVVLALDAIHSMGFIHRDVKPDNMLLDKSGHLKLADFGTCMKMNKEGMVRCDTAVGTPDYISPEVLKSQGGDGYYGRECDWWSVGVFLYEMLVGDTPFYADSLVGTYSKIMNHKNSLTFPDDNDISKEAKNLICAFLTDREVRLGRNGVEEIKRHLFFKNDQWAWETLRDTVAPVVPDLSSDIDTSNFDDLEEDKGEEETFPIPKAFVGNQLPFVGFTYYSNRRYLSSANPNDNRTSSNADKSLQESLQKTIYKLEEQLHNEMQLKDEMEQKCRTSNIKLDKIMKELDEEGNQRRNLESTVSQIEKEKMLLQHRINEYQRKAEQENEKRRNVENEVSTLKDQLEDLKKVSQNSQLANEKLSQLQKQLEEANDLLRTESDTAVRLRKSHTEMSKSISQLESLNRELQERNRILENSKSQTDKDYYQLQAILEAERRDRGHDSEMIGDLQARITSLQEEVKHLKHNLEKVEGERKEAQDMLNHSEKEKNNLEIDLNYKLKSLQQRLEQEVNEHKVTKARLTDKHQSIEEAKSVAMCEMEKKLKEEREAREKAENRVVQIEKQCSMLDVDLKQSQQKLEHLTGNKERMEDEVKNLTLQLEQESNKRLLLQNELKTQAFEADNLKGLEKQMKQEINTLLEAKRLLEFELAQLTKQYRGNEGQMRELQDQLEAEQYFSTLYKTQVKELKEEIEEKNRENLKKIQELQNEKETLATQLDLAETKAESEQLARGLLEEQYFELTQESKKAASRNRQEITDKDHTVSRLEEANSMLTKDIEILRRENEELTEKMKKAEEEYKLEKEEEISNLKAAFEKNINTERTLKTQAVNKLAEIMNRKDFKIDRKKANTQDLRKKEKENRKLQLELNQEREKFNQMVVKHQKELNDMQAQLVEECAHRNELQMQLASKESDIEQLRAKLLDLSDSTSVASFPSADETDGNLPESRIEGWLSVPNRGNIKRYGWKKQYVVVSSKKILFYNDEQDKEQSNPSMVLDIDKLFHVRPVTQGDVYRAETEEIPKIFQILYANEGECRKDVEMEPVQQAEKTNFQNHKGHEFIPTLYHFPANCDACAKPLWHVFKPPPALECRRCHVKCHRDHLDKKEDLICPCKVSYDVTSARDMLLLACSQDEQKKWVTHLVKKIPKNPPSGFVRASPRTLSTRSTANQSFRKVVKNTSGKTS

[9] = Clearance in Sprague-Dawley rat at 1.7 mg/kg; format: ADME, organism-based; set-up: dose 1.7 mg/kg; conditions: in vivo
[10] = Volume of distribution in Sprague-Dawley rat at 1.7 mg/kg; format: ADME, organism-based; set-up: dose 1.7 mg/kg; conditions: in vivo, read-out: Vdss
[11] = Oral bioavailability in Sprague-Dawley rat at 1.7 mg/kg, po; format: ADME, organism-based; conditions: in vivo
[12] = system: Thoracic aorta; assay: Dilatory activity against phenylephrine-induced contraction of Sprague-Dawley rat thoracic aorta; format: functional, tissue-based
[13] = Half life in Sprague-Dawley rat at 1.7 mg/kg; format: ADME, organism-based; set-up: dose 1.7 mg/kg; conditions: in vivo
[14] = Cmax in Sprague-Dawley rat at 1.7 mg/kg, iv; format: ADME, organism-based; set-up: dose 1.7 mg/kg, route intravenous; conditions: in vivo
[15] = Plasma concentration in spontaneously hypertensive rat at 3 mg/kg after 4 hrs; format: ADME, organism-based; set-up: dose 3 mg/kg
[16] = Oral bioavailability in Sprague-Dawley rat at 1.8 mg/kg, po; format: ADME, organism-based; conditions: in vivo
[17] = Volume of distribution in Sprague-Dawley rat at 1.8 mg/kg; format: ADME, organism-based; set-up: dose 1.8 mg/kg; conditions: in vivo, read-out: Vdss
[18] = Half life in Sprague-Dawley rat at 1.8 mg/kg; format: ADME, organism-based; set-up: dose 1.8 mg/kg; conditions: in vivo
[19] = Clearance in Sprague-Dawley rat at 1.8 mg/kg; format: ADME, organism-based; set-up: dose 1.8 mg/kg; conditions: in vivo
[20] = system: Rattus norvegicus; assay: Decrease in mean arterial pressure in spontaneously hypertensive rat at 3 mg/kg, po; format: functional, organism-based; set-up: dose 3 mg/kg; conditions: Artery
[21] = Plasma concentration in spontaneously hypertensive rat at 3 mg/kg after 1 hr; format: ADME, organism-based; set-up: dose 3 mg/kg
[22] = Cmax in Sprague-Dawley rat at 1.8 mg/kg, iv; format: ADME, organism-based; set-up: dose 1.8 mg/kg, route intravenous; conditions: in vivo
[23] = Plasma concentration in spontaneously hypertensive rat at 3 mg/kg after 8 hrs; format: ADME, organism-based; set-up: dose 3 mg/kg
[24] = Plasma concentration in spontaneously hypertensive rat at 3 mg/kg after 0.5 hrs; format: ADME, organism-based; set-up: dose 3 mg/kg
[25] = Plasma concentration in spontaneously hypertensive rat at 3 mg/kg after 2 hrs; format: ADME, organism-based; set-up: dose 3 mg/kg
[26] = Plasma concentration in spontaneously hypertensive rat at 3 mg/kg after 24 hrs; format: ADME, organism-based; set-up: dose 3 mg/kg
[27] = Cmax in Sprague-Dawley rat at 1.3 mg/kg, iv; format: ADME, organism-based; set-up: dose 1.3 mg/kg, route intravenous; conditions: in vivo
[28] = Clearance in Sprague-Dawley rat; format: ADME, organism-based; conditions: in vivo
[29] = Clearance in Sprague-Dawley rat at 1.6 mg/kg; format: ADME, organism-based; set-up: dose 1.6 mg/kg; conditions: in vivo
[30] = Cmax in Sprague-Dawley rat at 1.6 mg/kg, iv; format: ADME, organism-based; set-up: dose 1.6 mg/kg, route intravenous; conditions: in vivo
[31] = Half life in Sprague-Dawley rat at 1.6 mg/kg; format: ADME, organism-based; set-up: dose 1.6 mg/kg; conditions: in vivo
[32] = Oral bioavailability in Sprague-Dawley rat at 1.6 mg/kg, po; format: ADME, organism-based; conditions: in vivo
[33] = Volume of distribution in Sprague-Dawley rat at 1.6 mg/kg; format: ADME, organism-based; set-up: dose 1.6 mg/kg; conditions: in vivo, read-out: Vdss
[34] = Half life in Sprague-Dawley rat at 1.3 mg/kg; format: ADME, organism-based; set-up: dose 1.3 mg/kg; conditions: in vivo
[35] = Clearance in Sprague-Dawley rat at 1.3 mg/kg; format: ADME, organism-based; set-up: dose 1.3 mg/kg; conditions: in vivo
[36] = Oral bioavailability in Sprague-Dawley rat at 1.3 mg/kg, po; format: ADME, organism-based; conditions: in vivo
[37] = Volume of distribution in Sprague-Dawley rat at 1.3 mg/kg; format: ADME, organism-based; set-up: dose 1.3 mg/kg; conditions: in vivo, read-out: Vdss

SMILES | Vd [1] | bioavailability [2] | clearance [3] | half-life [4] | IC50 [5] | Cmax [6] | IC50 [7] | IC50 [8] | IC50 [12] | also measured
CC1=C(C(=O)Nc2ccc3[nH]ncc3c2)C(c2ccc3ccccc3c2)CC(=O)N1 (stereo unspecified) [GSK-270822A] |  |  |  |  | 1550 nM |  | 1100 nM | 9 nM | 76 nM | clearance [9]: 45 mL/min/kg; Vd [10]: 1.8 L/kg; bioavailability [11]: 13%; half-life [13]: 0.9 h; Cmax [14]: 700 ng/mL
CC1=C(C(=O)Nc2ccc3[nH]ncc3c2)C(c2ccc(C(F)(F)F)cc2)CC(=O)N1 (stereo unspecified) | 2.3 L/kg | 22% | 51 mL/min/kg | 0.7 h |  | 315 ng/mL | 740 nM | 5 nM | 39 nM | 
CC1=C(C(=O)Nc2cc3cn[nH]c3cc2F)C(c2ccc(C(F)(F)F)cc2)CC(=O)N1 (stereo unspecified) |  |  |  |  | 1940 nM |  | 780 nM | 14 nM | 190 nM | concentration at 4 h [15]: 110 ng/mL; bioavailability [16]: 61%; Vd [17]: 1.4 L/kg; half-life [18]: 1 h; clearance [19]: 25 mL/min/kg; Activity [20]: Dose-dependent effect; concentration at 1 h [21]: 192 ng/mL; Cmax [22]: 1560 ng/mL; concentration at 8 h [23]: 74 ng/mL; concentration at 0.5 h [24]: 193 ng/mL; concentration at 2 h [25]: 190 ng/mL; concentration at 24 h [26]: 2 ng/mL
CC1=C(C(=O)Nc2ccc3[nH]ncc3c2F)C(c2ccc(C(F)(F)F)cc2)CC(=O)N1 (stereo unspecified) |  |  |  |  | > 10000 nM |  | > 10000 nM | 2500 nM |  | 
CC1=C(C(=O)Nc2ccc3[nH]ncc3c2)C(c2ccc(F)cc2)NC(=O)N1 (stereo unspecified) [GSK-180736A] |  |  |  |  | 2850 nM |  | 3100 nM | 14 nM | 760 nM | Cmax [27]: 567 ng/mL; clearance [28]: 50 mL/min/kg
CC1=C(C(=O)Nc2ccc3[nH]ncc3c2)C(c2ccc(F)cc2)CC(=O)N1 (stereo unspecified) |  |  |  |  | 1100 nM |  | 1410 nM | 51 nM | 200 nM | clearance [29]: 47 mL/min/kg; Cmax [30]: 668 ng/mL; half-life [31]: 1 h; bioavailability [32]: 14%; Vd [33]: 2.1 L/kg

The next lines start with results.

Vd [1] | bioavailability [2] | clearance [3] | half-life [4] | IC50 [5] | Cmax [6] | IC50 [7] | IC50 [8] | SMILES | IC50 [12] | also measured
3.9 L/kg | 29% | 81 mL/min/kg | 1.2 h | 590 nM | 424 ng/mL | 90 nM | 8 nM | CC1=C(C(=O)Nc2cc(Cl)c3[nH]ncc3c2)C(c2ccc(C(F)(F)F)cc2)CC(=O)N1 (stereo unspecified) [GSK-466317A] |  | 
2.4 L/kg | 1% | 57 mL/min/kg | 0.8 h | 560 nM | 334 ng/mL | 620 nM | 8 nM | CC1=C(C(=O)Nc2ccc3[nH]ncc3c2)C(c2ccc(Cl)c(Cl)c2)CC(=O)N1 (stereo unspecified) [GSK-299115A] |  | 
 |  |  |  | 4790 nM |  | 1950 nM | 9 nM | CC1=C(C(=O)Nc2ccc3[nH]nc(C)c3c2)C(c2ccc(C(F)(F)F)cc2)CC(=O)N1 (stereo unspecified) [GSK-466314A] | 130 nM | half-life [34]: 2 h; Cmax [27]: 672 ng/mL; clearance [35]: 24 mL/min/kg; bioavailability [36]: 18%; Vd [37]: 2.8 L/kg
